Data: ChEMBL document CHEMBL1909046, “DrugMatrix in vitro pharmacology data”

Tests used:
[1] = DRUGMATRIX: beta-Lactamase enzyme inhibition (substrate: Nitrocefin); set-up: species or system Bacillus cereus; conditions: Not Active = under 50% inhibition at 10 µM
[2] = target: T1, Neuropeptide Y receptor type 1 (Homo sapiens, UniProt P25929); assay type: cell membranes, Membrane; conditions: sk-n-mc; also: in other assays of this panel Not Active means under 50% inhibition at 10 µM
T1 sequence (P25929 whole entry): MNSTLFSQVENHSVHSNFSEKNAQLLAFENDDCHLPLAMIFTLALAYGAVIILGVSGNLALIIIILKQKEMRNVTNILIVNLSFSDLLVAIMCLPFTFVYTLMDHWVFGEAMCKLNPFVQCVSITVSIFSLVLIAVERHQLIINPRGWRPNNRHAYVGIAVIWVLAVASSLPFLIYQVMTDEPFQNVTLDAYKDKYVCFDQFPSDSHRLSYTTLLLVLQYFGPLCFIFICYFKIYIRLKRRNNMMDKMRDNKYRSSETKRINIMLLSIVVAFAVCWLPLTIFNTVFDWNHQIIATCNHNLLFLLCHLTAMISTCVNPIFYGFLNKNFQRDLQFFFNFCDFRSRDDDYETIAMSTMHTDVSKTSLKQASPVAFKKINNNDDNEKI

[3] = target: Delta-type opioid receptor (Homo sapiens, UniProt P41143); assay type: cell membranes, Membrane; conditions: hek293; also: in other assays of this panel Not Active means under 50% inhibition at 10 µM
Delta-type opioid receptor, sequence (P41143 whole entry): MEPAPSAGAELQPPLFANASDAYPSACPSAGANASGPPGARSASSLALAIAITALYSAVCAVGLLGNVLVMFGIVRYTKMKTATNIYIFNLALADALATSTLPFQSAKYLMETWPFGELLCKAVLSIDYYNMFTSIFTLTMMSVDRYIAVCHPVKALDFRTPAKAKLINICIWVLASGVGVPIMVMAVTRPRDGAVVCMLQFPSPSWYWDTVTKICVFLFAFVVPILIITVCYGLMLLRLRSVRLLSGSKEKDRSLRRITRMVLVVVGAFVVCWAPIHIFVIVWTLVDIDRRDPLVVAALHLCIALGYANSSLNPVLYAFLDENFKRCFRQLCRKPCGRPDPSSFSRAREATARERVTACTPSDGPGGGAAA

[4] = DRUGMATRIX: Phosphodiesterase PDE3 enzyme inhibition (substrate: [3H]cAMP + cAMP); assay type: tissue-based, Homo sapiens; conditions: platelet; Not Active = under 50% inhibition at 10 µM
[5] = DRUGMATRIX: Phosphodiesterase PDE4 enzyme inhibition (substrate: [3H]cAMP + cAMP); conditions: u-937; Not Active = under 50% inhibition at 10 µM
[6] = DRUGMATRIX: Potassium Channel [KATP] radioligand binding (ligand: [3H] Glyburide); assay type: cell membranes, Membrane; conditions: hit-t15; Not Active = under 50% inhibition at 10 µM
Neutrophil elastase = target: T2, Neutrophil elastase (Homo sapiens, UniProt P08246); assay type: tissue-based;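 also: inhibition of neutrophil elastase enzyme activity, measured with a p-nitroanilide-linked peptide substrate; in other assays of this panel Not Active means under 50% inhibition at 10 µM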
T2 sequence (P08246 whole entry): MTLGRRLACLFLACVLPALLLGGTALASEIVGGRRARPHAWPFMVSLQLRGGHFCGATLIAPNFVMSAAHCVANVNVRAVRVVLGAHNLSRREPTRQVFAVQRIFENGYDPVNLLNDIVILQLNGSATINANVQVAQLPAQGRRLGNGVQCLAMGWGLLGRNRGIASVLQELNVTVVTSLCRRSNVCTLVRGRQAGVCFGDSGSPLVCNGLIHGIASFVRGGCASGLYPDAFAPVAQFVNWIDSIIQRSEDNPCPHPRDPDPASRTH

Cytochrome P450 2E1 = Cytochrome P450 2E1 (Homo sapiens, UniProt P05181); conditions: bti-tn-5b1-4; also: in other assays of this panel Not Active means under 50% inhibition at 10 µM
Cytochrome P450 2E1, sequence (P05181 whole entry): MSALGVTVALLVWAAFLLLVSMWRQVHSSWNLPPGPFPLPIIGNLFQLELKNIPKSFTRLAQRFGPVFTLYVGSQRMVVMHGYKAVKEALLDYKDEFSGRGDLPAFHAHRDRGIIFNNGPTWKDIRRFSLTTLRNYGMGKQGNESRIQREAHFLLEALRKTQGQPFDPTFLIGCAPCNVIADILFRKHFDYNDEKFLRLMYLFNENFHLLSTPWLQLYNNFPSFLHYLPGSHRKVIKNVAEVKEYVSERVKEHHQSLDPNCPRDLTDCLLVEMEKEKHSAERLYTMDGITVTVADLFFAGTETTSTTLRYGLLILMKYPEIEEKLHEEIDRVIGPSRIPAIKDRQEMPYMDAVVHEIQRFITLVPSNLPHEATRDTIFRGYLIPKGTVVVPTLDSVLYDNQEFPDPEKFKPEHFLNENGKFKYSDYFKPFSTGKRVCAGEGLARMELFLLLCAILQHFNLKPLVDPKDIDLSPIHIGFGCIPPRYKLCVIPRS

Estrogen receptor = target: T3, Estrogen receptor (Homo sapiens, UniProt P03372); conditions: sf9; also: in other assays of this panel Not Active means under 50% inhibition at 10 µM
T3 sequence (P03372 whole entry): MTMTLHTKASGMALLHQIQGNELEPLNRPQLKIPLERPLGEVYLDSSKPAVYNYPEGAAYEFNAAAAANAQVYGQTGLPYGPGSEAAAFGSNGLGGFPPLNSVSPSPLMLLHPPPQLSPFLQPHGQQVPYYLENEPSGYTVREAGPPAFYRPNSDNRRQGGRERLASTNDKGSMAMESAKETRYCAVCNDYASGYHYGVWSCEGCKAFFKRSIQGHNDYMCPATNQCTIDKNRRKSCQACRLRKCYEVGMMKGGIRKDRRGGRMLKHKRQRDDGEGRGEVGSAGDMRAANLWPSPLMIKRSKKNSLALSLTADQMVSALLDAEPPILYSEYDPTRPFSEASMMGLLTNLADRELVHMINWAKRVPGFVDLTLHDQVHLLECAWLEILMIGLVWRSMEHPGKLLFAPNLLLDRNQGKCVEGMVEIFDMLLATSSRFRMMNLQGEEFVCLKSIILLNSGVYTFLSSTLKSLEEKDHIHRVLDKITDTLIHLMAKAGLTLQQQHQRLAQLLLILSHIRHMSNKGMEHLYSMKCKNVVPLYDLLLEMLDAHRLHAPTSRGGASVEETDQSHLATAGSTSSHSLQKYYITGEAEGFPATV

MANGANESE CHLORIDE ANHYDROUS
Not Active: IC50 [1] | Ki [1] | IC50 [2] | Ki [2] | IC50 [3] | Ki [3] | IC50 [4] | Ki [4] | IC50 [5] | Ki [5] | IC50 [6] | Ki [6] | IC50 (Neutrophil elastase) | Ki (Neutrophil elastase) | IC50 (Cytochrome P450 2E1) | Ki (Cytochrome P450 2E1) | IC50 (Estrogen receptor) | Ki (Estrogen receptor)

CNC1(c2ccccc2Cl)CCCCC1=O (centres undefined) [KETAMINE]
Not Active: IC50 [1] | Ki [1] | IC50 [2] | IC50 [3] | IC50 [4] | Ki [4] | IC50 [5] | Ki [5] | IC50 [6] | Ki [6] | IC50 (Neutrophil elastase) | IC50 (Cytochrome P450 2E1) | Ki (Cytochrome P450 2E1) | IC50 (Estrogen receptor)

Nc1cc(N2CCCCC2)nc(N)[n+]1[O-] [MINOXIDIL]
Not Active: IC50 [1] | Ki [1] | IC50 [2] | IC50 [3] | IC50 [4] | Ki [4] | IC50 [5] | Ki [5] | IC50 [6] | Ki [6] | IC50 (Neutrophil elastase) | IC50 (Cytochrome P450 2E1) | Ki (Cytochrome P450 2E1) | IC50 (Estrogen receptor)

CS(=O)(=O)c1ccc([C@@H](O)[C@@H](CO)NC(=O)C(Cl)Cl)cc1 [THIAMPHENICOL]
Not Active: IC50 [1] | Ki [1] | IC50 [2] | IC50 [3] | IC50 [4] | Ki [4] | IC50 [5] | Ki [5] | IC50 [6] | Ki [6] | IC50 (Neutrophil elastase) | IC50 (Cytochrome P450 2E1) | Ki (Cytochrome P450 2E1) | IC50 (Estrogen receptor)

Clc1ccccc1CN1CCc2sccc2C1 [TICLOPIDINE]
Not Active: IC50 [1] | Ki [1] | IC50 [2] | IC50 [3] | IC50 [4] | Ki [4] | IC50 [5] | Ki [5] | IC50 [6] | Ki [6] | IC50 (Neutrophil elastase) | IC50 (Cytochrome P450 2E1) | Ki (Cytochrome P450 2E1) | IC50 (Estrogen receptor)
